The values that follow come from patent US4732984A, “Piperazinoisothiazolones with psychotropic activity” (priority 1986, dated 1988).

One test deals with dopamine receptor. The settings on record: mice; 10 mg/kg s.c. apomorphine.
The nature of test [1]: Conditioned avoidance (shelf-jump response) test. In kind it is in vivo, Male CD rats. The note with it: Rattus norvegicus, ip, rats, read-out: AB50 (standard compounds). The text has this: Another test designed to determine the potential antipsychotic activity of the compounds of the invention is the conditioned avoidance (shelf-jump response) test.
Male CD rats (Charles River) maintained at approximately 400-450 gm body weight are used. […] A moveable wall, controlled by a motor, determines whether the rat has access to the shelf at any time during the experiment. The experimental chamber also contains a house light and sonalert. A steel grid floor in the main chamber is wired for presentation of electric shock. Each trial consists of a fifteen-second warning tone (conditioned stimulus), continuing for an additional fifteen seconds accompanied by electric shock (unconditioned stimulus). A response (jumping onto the exposed shelf of the upper chamber) occurring during the initial fifteen-second warning tone is considered an avoidance response, while a response occurring during shock delivery is considered an escape response. Trials are presented on a fixed interval schedule of one minute. The session consists of thirty-six trials. […]
The following experimental parameters are recorded by computer: (1) the number of avoidance responses, (2) the number of escape responses, and (3) the number of trials in which no response occurred.
Response counts are summed over all subjects at a given dose. […] This number is expressed as a percentage of the total trials. […]

Test [2] can be described thus: Conditioned avoidance (discrete trial) test. The class given is in vivo, Male CD rats. The settings on record: Rattus norvegicus, po; perorally administered; discrete trial; rats; read-out: AB50 (the source's name). On the procedure: The antipsychotic activity of the compounds of the invention is assessed via the conditioned avoidance (discrete trial) test. This test has excellent clinical correlation for antipsychotic activity.
Male CD rats (Charles River) maintained at approximately 400-450 gm body weight are used. Rats trained previously are placed in plexiglass experimental chambers equipped with a response lever, house light, and sonalert. A steel grid floor is wired for presentation of electric shock. Each trial consists of a fifteen-second warning tone (conditioned stimulus), continuing for an additional fifteen seconds accompanied by electric shock, (unconditioned stimulus). The rat can terminate a trial at any point by depression of the response lever. A response during the initial fifteen-second warning tone ends the trial before shock delivery and is considered an avoidance response, while a response occurring during shock delivery is an escape response. Trials are presented on a variable interval schedule of two minutes. The session consists of sixty trials. Animals are run two to three times weekly with control sessions always preceding a drug run, and with at least one day intervening, compounds are administered i.p. or p.o. at appropriate pre-treatment times to a minimum of five to six rats at each dose level over a range of doses.
The following experimental parameters are recorded by computer: (1) the number of intertrial interval responses, (2) the number of avoidance responses, (3) the number of escape responses, and (4) the number of trials in which no response occurred.
Response counts are summed over all subjects at a given dose. […] This number is expressed as a percentage of the total trials. Control performance is arbitrarily assigned a value of 100% for avoidance and the dose calculated to produce a 50% block in avoidance responding (AB50 ) is obtained from a dose-effect regression line fitted by the method of least squares. Potential antipsychotic compounds suppress avoidance responding and increase escape responding.

Structures are written as SMILES.

`O=C1CC2(CCCC2)CC(=O)N1CCCCN1CCN(c2ncccn2)CC1` [Buspirone, 8-[4-[4-(2-pyrimidinyl)-1-piperazinyl]butyl]-8-azaspiro[4.5]decane-7,9-dione]: in the test with dopamine receptor, the “Activity in apomorphine-induced stereotyped behavior assay” value is “inactive”. The figures for the ED50 in test [1] and in test [2] were 9.44 mg/kg and 32 mg/kg, respectively.
